Source: US9550000B2, “Compositions, methods, and systems for the synthesis and use of imaging agents” (Lantheus Medical Imaging, Inc., priority 2011, dated 2017)
Structures can show the parent of a compound that is named as a salt.

Key:
PC-12 cells = assay: PC-12 binding assay (cell uptake with or without desipramine); format: cell-based, rat; conditions: 0.1 μCi test agent, 60 min at 37° C.; for PC-12 (% bound) Block: with 1 μM desipramine (nonspecific uptake); for PC-12 (% bound) Control: without desipramine (total uptake)
Description: Rat pheochromocytoma cell line (PC-12) were purchased from the American Type Culture Collection (ATCC) then cultured in collagen-coated flasks (BD Bio Coat Collagen Type 1, BD Biosciences) using a growth media composed of F-12 K media, 2 mM L-glutamine, 15% horse serum, 2.5% fetal bovine serum (FBS) and 1% penicillin-streptomycin.
Prepared PC-12 cells were seeded into 6-well plates at a density of 1×10^6 cells/well with 2 mL of growth media and maintained 24 h at 37° C. under a 5% CO2 atmosphere. The media was exchanged and each well treated with 0.1 μCi test agent, with or without 1 μM desipramine. The resulting mixture was incubated for 60 min at 37° C. and 5% CO2 then centrifuged at 500×g for 3 min and washed with PBS buffer. Radioactivity associated with the cells was then measured, and total uptake determined in the wells without desipramine; nonspecific uptake was measured in the associated wells containing desipramine. The specific NET mediated cell uptake is calculated as percent total uptake minus percent nonspecific uptake.

[1] = biological target: T1, human norepinephrine transporter (Homo sapiens, UniProt P23975); assay: Norepinephrine transporter binding assay ([3H]desipramine competition, MDCK cell membranes); conditions: competition with [3H]desipramine 2 nM, 2 h on ice; read-out: NET Affinity
T1 construct: expressed in transfected cells; host or cells: MDCK cells (membrane preparation)
T1 sequence (P23975 whole entry): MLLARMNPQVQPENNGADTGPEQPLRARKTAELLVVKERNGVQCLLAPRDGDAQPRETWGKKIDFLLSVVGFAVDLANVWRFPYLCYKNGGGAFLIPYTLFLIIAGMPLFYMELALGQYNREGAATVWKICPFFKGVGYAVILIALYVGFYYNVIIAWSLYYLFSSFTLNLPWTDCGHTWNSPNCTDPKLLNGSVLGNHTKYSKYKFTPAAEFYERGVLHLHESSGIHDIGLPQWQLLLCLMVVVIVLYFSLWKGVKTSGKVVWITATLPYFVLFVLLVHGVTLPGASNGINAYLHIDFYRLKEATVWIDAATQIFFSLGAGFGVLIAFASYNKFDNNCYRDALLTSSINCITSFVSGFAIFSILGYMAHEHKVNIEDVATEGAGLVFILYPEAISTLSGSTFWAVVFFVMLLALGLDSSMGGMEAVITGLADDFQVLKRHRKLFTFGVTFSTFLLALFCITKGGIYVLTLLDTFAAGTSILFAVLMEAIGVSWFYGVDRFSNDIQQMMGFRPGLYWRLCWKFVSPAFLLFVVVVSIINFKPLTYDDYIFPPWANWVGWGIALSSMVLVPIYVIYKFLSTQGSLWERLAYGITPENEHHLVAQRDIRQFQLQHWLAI
Description: Individual inhibitors were dissolved in incubation buffer (50 mM Tris-HCl, 10% sucrose, pH 7.4) at appropriate dilutions. The inhibitor solutions were added to the wells of a microtiter plate (40 μL/well) in triplicate. Each well of test agent (and appropriate control wells) was treated with a mixture of MDCK cell membrane preparation (22.4 μg of membrane) expressing human norepinephrine transporter (Bmax=3.7 pmol norepinephrine transporter/mg protein), and [^3H]desipramine (2 nM, 64.8 Ci/mmol) in a total volume of 0.2 mL. The resulting mixtures were incubated for 2 h on ice.
A 96 well GF/C filter plate was presoaked with coating buffer (0.5% polyvinylpyrrolidine and 0.1% Tween 20) for 2 h at room temperature, then washed with incubation buffer (6×0.2 mL). The competition reactions were transferred to the coated plate and filtered. The filter plate was washed (6×0.2 mL) with ice cold wash buffer (50 mM Tris-HCl, 0.9% NaCl, pH 7.4) then dried overnight and treated with 25 μL scintillation fluid for analysis on a plate reader (Microbeta TriLux 1450 LSC and Luminescence counter, Perkin Elmer, Shelton Conn.).

[2] = Tissue distribution in rats; format: in vivo; conditions: bolus iv injection
Description: (§1) Male Sprague Dawley rats (300-500 g, Taconic), and male New Zealand rabbits (3-4 kg, Covance) were used in accordance with our Institutional Animal Care and Use Committee. Rats were anesthetized with sodium pentobarbital (50 mg/kg, i.p.) and the left femoral vein cannulated with PESO tubing for drug injection. Rabbits were pre-sedated with acepromazine (0.75 mg/kg i.m.) then anesthetized with ketamine (40 mg/kg, i.m.) and xylazine (8 mg/kg, i.m); the marginal ear vein was cannulated for drug injection. Additional doses of anesthetics were given as needed.
(§2) After preparation, each animal received a bolus injection of the test agent via the venous catheter. Rats and rabbits were euthanized after the injection and samples of the blood, heart, lung, liver, spleen, kidney, femur and muscle were collected. All samples were weighed and counted for radioactivity (Wallac Wizard 1480, PerkinElmer Life and Analytical Sciences, Shelton, Conn.); net radioactivity administered in each animal was determined by subtracting the residual activity in both the syringe and venous catheter. Tissue uptake of each agent was determined as a percentage of the injected dose per gram tissue (% ID/g).

[3] = Tissue distribution in rabbits; format: in vivo; conditions: bolus iv injection
Description: as §1, §2

[4] = system: SK-N-SH cells with expression of NAT; assay: Cell uptake comparison in SK-N-SH cells with or without desipramine; format: cell-based, human; conditions: for inhibition of cell uptake by blockade of NAT with desipramine: SK-N-SH cells, desipramine 1 μM
Description: Imaging Agent-1 cell uptake in comparison with ^3H-NA and ^123I-MIBG was assayed in human neuroblastoma cells (SK-N-SH, ATCC) with expression of NAT (Buck et al., Cancer Res. 1985; 45(12 Pt 1):6366-70). Cells were prepared in 6-well plates at a density of 1×10^6 cells/well in 2 mL media. Imaging Agent-1, ^3H-NA or ^123I-MIBG at 3.7 kBq was added to each well with or without desipramine (1 μM), a selective NAT inhibitor. In assay with NA, pargyline (10 μM) was included to inhibit monoamine oxidase activity. Following incubation for 60 minutes at 37° C., cells were washed twice with ice-cold phosphate-buffered saline, trypsinized and centrifuged at 1000 g for 3 minutes to collect cell pellet. Radioactivity associated with the cells was measured with a γ-(Wallac Wizard 1480, PerkinElmer) or β-counter (Microbeta TriLux 1450 LSC, PerkinElmer). Each assay was performed in triplicate and the uptake was expressed as a percent of total radioactivity added to the well.

[5] = system: noradrenaline transporter (NAT) in SK-N-SH cells; assay: Competitive inhibition of Imaging Agent-1 uptake in SK-N-SH cells; format: cell-based, human; conditions: non-radioactive competitor 0.1-100 μM, 37° C., 60 minutes, read-out: IC50 for inhibition of Imaging Agent-1 cell uptake
Description: For the competitive inhibition assay, Imaging Agent-1 at 3.7 kBq was incubated in SK-N-SH cells with various concentrations (0.1, 1, 10, or 100 μM) of non-radioactive NA, MIBG or ^19F-Imaging Agent-1 (self) at 37° C. for 60 minutes. Similarly, following the incubation, Imaging Agent-1 cell uptake was determined. The IC50 value of each agent was determined using GraphPad software (v5).

Molecule: N=C1NCC(c2ccc(OCCF)cc2)N1 (stereo not shown) [Example 1, 4-(4-(2-fluoroethoxy)phenyl)imidazolidin-2-imine]
- PC-12 (% bound) Block (PC-12 cells): 0.30 % bound
- PC-12 (% bound) Control (PC-12 cells): 3.1 % bound
- Ki [1]: 7.27 µM
- Rat Blood [2]: 0.18 % ID/g
- Rat Heart [2]: 1.03 % ID/g
- Rat Liver [2]: 0.15 % ID/g
- Rat Lung [2]: 0.24 % ID/g

Molecule: N=C1NCC(c2ccc(OCCF)c(Br)c2)N1 (stereo not shown) [Example 2, 4-(3-bromo-4-(2-fluoroethoxy)phenyl)imidazolidin-2-imine, hydrochloric acid salt]
- PC-12 (% bound) Block (PC-12 cells): 0.60 % bound
- PC-12 (% bound) Control (PC-12 cells): 3.20 % bound
- Ki [1]: 11.2 µM
- Rat Blood [2]: 0.19 % ID/g
- Rat Heart [2]: 1.33 % ID/g
- Rat Liver [2]: 0.25 % ID/g
- Rat Lung [2]: 0.94 % ID/g

Molecule: N=C(N)NCc1ccc(CF)c(Br)c1 [Example 3, 1-(3-bromo-4-(fluoromethyl)benzyl)guanidine]
- Rabbit Blood [3]: 0.01 % ID/g
- Rabbit Heart [3]: 0.29 % ID/g
- Rabbit Liver [3]: 0.02 % ID/g
- Rabbit Lung [3]: 0.39 % ID/g
- PC-12 (% bound) Block (PC-12 cells): 2.36 % bound
- PC-12 (% bound) Control (PC-12 cells): 32.76 % bound
- Ki [1]: 7.35 µM
- Rat Blood [2]: 0.35 ± 0.15 % ID/g
- Rat Heart [2]: 0.71 ± 0.24 % ID/g
- Rat Liver [2]: 0.15 ± 0.03 % ID/g
- Rat Lung [2]: 1.12 ± 0.29 % ID/g

Molecule: N=C(N)NCc1ccc(COCCF)c(Br)c1 [Example 4, 1-(3-bromo-4-((2-fluoroethoxy)methyl)benzyl)guanidine]
- Rabbit Blood [3]: 0.014 % ID/g
- Rabbit Heart [3]: 0.025 % ID/g
- Rabbit Liver [3]: 0.012 % ID/g
- Rabbit Lung [3]: 0.031 % ID/g
- PC-12 (% bound) Block (PC-12 cells): 0.50 % bound
- PC-12 (% bound) Control (PC-12 cells): 1.00 % bound
- Ki [1]: 5.41 µM
- Rat Blood [2]: 0.13 ± 0.02 % ID/g
- Rat Heart [2]: 1.04 ± 0.95 % ID/g
- Rat Liver [2]: 0.37 ± 0.24 % ID/g
- Rat Lung [2]: 0.34 ± 0.18 % ID/g

Molecule: N=C(N)NCc1ccc(CCF)cc1 [Example 5, 1-[4-(2-fluoroethyl)benzyl]guanidine]
- PC-12 (% bound) Block (PC-12 cells): 0.90 % bound
- PC-12 (% bound) Control (PC-12 cells): 1.00 % bound
- Ki [1]: 18.7 µM
- Rat Blood [2]: 0.69 % ID/g
- Rat Heart [2]: 1.23 % ID/g
- Rat Liver [2]: 0.26 % ID/g
- Rat Lung [2]: 0.59 % ID/g

Molecule: N=C(N)NCc1ccc(CCF)c(Br)c1 [Example 8, 1-(3-bromo-4-(2-fluoroethyl)benzyl)guanidine]
- PC-12 (% bound) Block (PC-12 cells): 0.60 % bound
- PC-12 (% bound) Control (PC-12 cells): 1.30 % bound
- Ki [1]: 17.4 µM
- Rat Blood [2]: 0.21 % ID/g
- Rat Heart [2]: 1.61 % ID/g
- Rat Liver [2]: 0.27 % ID/g
- Rat Lung [2]: 0.94 % ID/g

Molecule: N=C(N)NCc1ccc2cc(OCCF)ccc2c1 [Example 11, 1-((6-(2-fluoroethoxy)naphthalen-2-yl)methyl)guanidine]
- Rabbit Blood [3]: 0.04 ± 0.01 % ID/g
- Rabbit Heart [3]: 0.39 ± 0.02 % ID/g
- Rabbit Liver [3]: 0.02 ± 0.00 % ID/g
- Rabbit Lung [3]: 0.39 ± 0.11 % ID/g
- PC-12 (% bound) Block (PC-12 cells): 2.70 % bound
- PC-12 (% bound) Control (PC-12 cells): 23.90 % bound
- Ki [1]: 0.12 µM
- Rat Blood [2]: 0.51 ± 0.11 % ID/g
- Rat Heart [2]: 1.74 ± 0.27 % ID/g
- Rat Liver [2]: 0.61 ± 0.40 % ID/g
- Rat Lung [2]: 2.71 ± 0.51 % ID/g

Molecule: N=C(N)NCc1ccc2cc(OCCCF)ccc2c1 [Example 12, 1-((6-(3-fluoropropoxy)naphthalen-2-yl)methyl)guanidine]
- Rabbit Blood [3]: 0.04 ± 0.02 % ID/g
- Rabbit Heart [3]: 0.29 ± 0.09 % ID/g
- Rabbit Liver [3]: 0.02 ± 0.01 % ID/g
- Rabbit Lung [3]: 0.28 ± 0.17 % ID/g
- PC-12 (% bound) Block (PC-12 cells): 0.50 % bound
- PC-12 (% bound) Control (PC-12 cells): 5.30 % bound
- Ki [1]: 0.14 µM
- Rat Blood [2]: 0.37 ± 0.05 % ID/g
- Rat Heart [2]: 1.93 ± 0.11 % ID/g
- Rat Liver [2]: 0.18 ± 0.01 % ID/g
- Rat Lung [2]: 2.09 ± 0.08 % ID/g

Molecule: N=C(N)NCCc1c[nH]c2ccc(OCCF)cc12 [Example 21, 1-(2-(5-(2-fluoroethoxy)-1H-indol-3-yl)ethyl)guanidine]
- PC-12 (% bound) Block (PC-12 cells): 0.10 % bound
- PC-12 (% bound) Control (PC-12 cells): 0.10 % bound
- Ki [1]: 1.19 µM
- Rat Blood [2]: 0.41 % ID/g
- Rat Heart [2]: 0.35 % ID/g
- Rat Liver [2]: 1.01 % ID/g
- Rat Lung [2]: 0.38 % ID/g

Molecule: N=C(N)NCCc1ccc(CCCF)cc1 [Example 33, 1-(4-(3-fluoropropyl)phenethyl)guanidine]
- PC-12 (% bound) Block (PC-12 cells): 1.50 % bound
- PC-12 (% bound) Control (PC-12 cells): 2.30 % bound
- Ki [1]: 3.95 µM
- Rat Blood [2]: 0.10 ± 0.01 % ID/g
- Rat Heart [2]: 1.94 ± 0.16 % ID/g
- Rat Liver [2]: 0.21 ± 0.04 % ID/g
- Rat Lung [2]: 0.66 ± 0.11 % ID/g

Molecule: N=C(N)NCc1ccc(OCCC[18F])c(Br)c1 [Imaging Agent-1]
- uptake in SK-N-SH cells (percent of total radioactivity added) ([4]; 3.7 kBq, 60 minutes at 37° C., without desipramine): 24.6±9%
- inhibition of cell uptake by blockade of NAT with desipramine [4]: 90±3%

Molecule: N=C(N)NCc1cccc(I)c1 [MIBG, meta-iodobenzylguanidine]
- IC50 [5]: 0.21 µM

Molecule: N=C(N)NCc1cccc([123I])c1 [^123I-MIBG, ^123I-meta-iodobenzylguanidine, reference compound]
- inhibition of cell uptake by blockade of NAT with desipramine [4]: 94±2%

Molecule: ^3H-noradrenaline [^3H-NA, reference compound]
- inhibition of cell uptake by blockade of NAT with desipramine [4]: 97±2%
